# Legend:
# Bifidobacterium breve = experiment: Antibacterial activity against Bifidobacterium breve by CLSI M11-A6 agar dilution method; format: functional
# [1] = tested on: Propionibacterium propionicum; experiment: Antibacterial activity against Propionibacterium propionicus by CLSI M11-A6 agar dilution method; format: functional; details: Arachnia propionica
# Clostridium tertium = experiment: Antibacterial activity against Clostridium tertium by CLSI M11-A6 agar dilution method; format: functional
# Bacteroides fragilis = experiment: Antibacterial activity against Bacteroides fragilis by CLSI M11-A6 agar dilution method; format: functional
# [2] = tested on: Clostridium celerecrescens; experiment: Antibacterial activity against Clostridium celerecrescens by CLSI M11-A6 agar dilution method; format: functional; details: Lacrimispora celerecrescens
# [3] = tested on: Streptococcus intermedius; experiment: Antibacterial activity against Streptococcus intermedius by CLSI M11-A6 agar dilution method; format: functional
# [4] = tested on: Sutterella wadsworthensis; experiment: Antibacterial activity against Sutterella wadsworthensis by CLSI M11-A6 agar dilution method; format: functional
# Clostridium sp. = experiment: Antibacterial activity against Clostridium sp. by CLSI M11-A6 agar dilution method; format: functional
# Clostridioides difficile = experiment: Antibacterial activity against Clostridium difficile by CLSI M11-A6 agar dilution method; format: functional
# Prevotella buccae = experiment: Antibacterial activity against Prevotella buccae by CLSI M11-A6 agar dilution method; format: functional; details: Segatella buccae
# Flavonifractor plautii = experiment: Antibacterial activity against Clostridium orbiscindens by CLSI M11-A6 agar dilution method; format: functional
# Parabacteroides merdae = experiment: Antibacterial activity against Parabacteroides merdae by CLSI M11-A6 agar dilution method; format: functional
# [5] = tested on: Peptostreptococcus anaerobius; experiment: Antibacterial activity against Peptostreptococcus anaerobius by CLSI M11-A6 agar dilution method; format: functional
# [6] = Antibacterial activity against Bifidobacterium infantis by CLSI M11-A6 agar dilution method; format: functional, Bifidobacterium longum subsp. infantis; details: Bifidobacterium longum
# Prevotella intermedia = experiment: Antibacterial activity against Prevotella intermedia by CLSI M11-A6 agar dilution method; format: functional
# Eggerthella lenta = experiment: Antibacterial activity against Eggerthella lenta by CLSI M11-A6 agar dilution method; format: functional
# Ruminococcus obeum = experiment: Antibacterial activity against Ruminococcus obeum by CLSI M11-A6 agar dilution method; format: functional; details: Blautia obeum
# [7] = tested on: Streptococcus constellatus; experiment: Antibacterial activity against Streptococcus constellatus by CLSI M11-A6 agar dilution method; format: functional
# Clostridium hathewayi = experiment: Antibacterial activity against Clostridium hathewayi by CLSI M11-A6 agar dilution method; format: functional; details: Hungatella hathewayi
# Clostridium leptum = experiment: Antibacterial activity against Clostridium leptum by CLSI M11-A6 agar dilution method; format: functional
# Clostridium sporogenes = experiment: Antibacterial activity against Clostridium sporogenes by CLSI M11-A6 agar dilution method; format: functional
# [8] = tested on: Ruminococcus flavefaciens; experiment: Antibacterial activity against Ruminococcus flavefaciens by CLSI M11-A6 agar dilution method; format: functional
# Clostridium perfringens = experiment: Antibacterial activity against Clostridium perfringens by CLSI M11-A6 agar dilution method; format: functional
# Clostridium butyricum = experiment: Antibacterial activity against Clostridium butyricum by CLSI M11-A6 agar dilution method; format: functional
# [9] = tested on: Prevotella melaninogenica; experiment: Antibacterial activity against Prevotella melaninogenica by CLSI M11-A6 agar dilution method; format: functional
# Blautia producta = experiment: Antibacterial activity against Ruminococcus productus by CLSI M11-A6 agar dilution method; format: functional
# [10] = tested on: Catenibacterium mitsuokai; experiment: Antibacterial activity against Catenibacterium mitsuokai by CLSI M11-A6 agar dilution method; format: functional
# Hoylesella oralis = experiment: Antibacterial activity against Prevotella oralis by CLSI M11-A6 agar dilution method; format: functional
# Bilophila wadsworthia = experiment: Antibacterial activity against Bilophila wadsworthia by CLSI M11-A6 agar dilution method; format: functional
# Clostridium spiroforme = experiment: Antibacterial activity against Clostridium spiroforme by CLSI M11-A6 agar dilution method; format: functional; details: Thomasclavelia spiroformis
# Bacteroides ovatus = experiment: Antibacterial activity against Bacteroides ovatus by CLSI M11-A6 agar dilution method; format: functional
# Prevotella denticola = experiment: Antibacterial activity against Prevotella P denticola by CLSI M11-A6 agar dilution method; format: functional
# Odoribacter splanchnicus = experiment: Antibacterial activity against Bacteroides splanchnicus by CLSI M11-A6 agar dilution method; format: functional
# [11] = tested on: Peptoniphilus asaccharolyticus; experiment: Antibacterial activity against Peptoniphilus asaccharolyticus by CLSI M11-A6 agar dilution method; format: functional
# Coriobacterium = experiment: Antibacterial activity against […] by CLSI M11-A6 agar dilution method; format: functional
# [12] = tested on: Bifidobacterium adolescentis; experiment: Antibacterial activity against Bifidobacterium adolescentis by CLSI M11-A6 agar dilution method; format: functional
# Fusobacterium varium = experiment: Antibacterial activity against Fusobacterium varium by CLSI M11-A6 agar dilution method; format: functional
# Finegoldia magna = experiment: Antibacterial activity against Finegoldia magna by CLSI M11-A6 agar dilution method; format: functional
# Anaerococcus tetradius = experiment: Antibacterial activity against Anaerococcus tetradius by CLSI M11-A6 agar dilution method; format: functional
# [13] = tested on: Coprobacillus cateniformis; experiment: Antibacterial activity against Coprobacillus cateniformis by CLSI M11-A6 agar dilution method; format: functional
# Bifidobacterium longum = experiment: Antibacterial activity against Bifidobacterium longum by CLSI M11-A6 agar dilution method; format: functional
# Clostridium scindens = experiment: Antibacterial activity against Clostridium scindens by CLSI M11-A6 agar dilution method; format: functional
# Collinsella aerofaciens = experiment: Antibacterial activity against Colinsella aerofaciens by CLSI M11-A6 agar dilution method; format: functional
structure (smiles),measurement,setting,value
CCCCCCCCCC(=O)N[C@@H](Cc1c[nH]c2ccccc12)C(=O)N[C@H](CC(N)=O)C(=O)N[C@@H](CC(=O)O)C(=O)N[C@@H]1C(=O)NCC(=O)N[C@@H](CCCN)C(=O)N[C@@H](CC(=O)O)C(=O)N[C@H](C)C(=O)N[C@@H](CC(=O)O)C(=O)NCC(=O)N[C@H](CO)C(=O)N[C@@H]([C@H](C)CC(=O)O)C(=O)N[C@@H](CC(=O)c2ccccc2N)C(=O)O[C@@H]1C,MIC50,Bifidobacterium breve,1 µg/mL
same,MIC90,Bifidobacterium breve,32 µg/mL
same,MIC50,[1],1 µg/mL
same,MIC90,[1],32 µg/mL
same,MIC50,Clostridium tertium,1 µg/mL
same,MIC90,Clostridium tertium,8 µg/mL
same,MIC,Bacteroides fragilis,> 128 µg/mL
same,MIC50,Bacteroides fragilis,> 128 µg/mL
same,MIC90,Bacteroides fragilis,> 128 µg/mL
same,MIC50,[2],1 µg/mL
same,MIC90,[2],8 µg/mL
same,MIC50,[3],2 µg/mL
same,MIC90,[3],4 µg/mL
same,MIC,[4],> 128 µg/mL
same,MIC50,[4],> 128 µg/mL
same,MIC90,[4],> 128 µg/mL
same,MIC50,Clostridium sp.,1 µg/mL
same,MIC90,Clostridium sp.,8 µg/mL
same,MIC50,Clostridioides difficile,0.5 µg/mL
same,MIC90,Clostridioides difficile,1 µg/mL
same,MIC,Prevotella buccae,> 128 µg/mL
same,MIC50,Prevotella buccae,> 128 µg/mL
same,MIC90,Prevotella buccae,> 128 µg/mL
same,MIC50,Flavonifractor plautii,1 µg/mL
same,MIC90,Flavonifractor plautii,8 µg/mL
same,MIC,Parabacteroides merdae,> 128 µg/mL
same,MIC50,Parabacteroides merdae,> 128 µg/mL
same,MIC90,Parabacteroides merdae,> 128 µg/mL
same,MIC50,[5],1 µg/mL
same,MIC90,[5],4 µg/mL
same,MIC50,[6],1 µg/mL
same,MIC90,[6],32 µg/mL
same,MIC,Prevotella intermedia,> 128 µg/mL
same,MIC50,Prevotella intermedia,> 128 µg/mL
same,MIC90,Prevotella intermedia,> 128 µg/mL
same,MIC50,Eggerthella lenta,1 µg/mL
same,MIC90,Eggerthella lenta,32 µg/mL
same,MIC50,Ruminococcus obeum,0.5 µg/mL
same,MIC90,Ruminococcus obeum,0.5 µg/mL
same,MIC50,[7],2 µg/mL
same,MIC90,[7],4 µg/mL
same,MIC50,Clostridium hathewayi,1 µg/mL
same,MIC90,Clostridium hathewayi,2 µg/mL
same,MIC50,Clostridium leptum,1 µg/mL
same,MIC90,Clostridium leptum,8 µg/mL
same,MIC50,Clostridium sporogenes,1 µg/mL
same,MIC90,Clostridium sporogenes,8 µg/mL
same,MIC50,[8],1 µg/mL
same,MIC90,[8],2 µg/mL
same,MIC50,Clostridium perfringens,0.5 µg/mL
same,MIC90,Clostridium perfringens,1 µg/mL
same,MIC50,Clostridium butyricum,1 µg/mL
same,MIC90,Clostridium butyricum,8 µg/mL
same,MIC,[9],> 128 µg/mL
same,MIC50,[9],> 128 µg/mL
same,MIC90,[9],> 128 µg/mL
same,MIC50,Blautia producta,1 µg/mL
same,MIC90,Blautia producta,2 µg/mL
same,MIC50,[10],1 µg/mL
same,MIC90,[10],32 µg/mL
same,MIC,Hoylesella oralis,> 128 µg/mL
same,MIC50,Hoylesella oralis,> 128 µg/mL
same,MIC90,Hoylesella oralis,> 128 µg/mL
same,MIC,Bilophila wadsworthia,> 128 µg/mL
same,MIC50,Bilophila wadsworthia,> 128 µg/mL
same,MIC90,Bilophila wadsworthia,> 128 µg/mL
same,MIC50,Clostridium spiroforme,1 µg/mL
same,MIC90,Clostridium spiroforme,8 µg/mL
same,MIC,Bacteroides ovatus,> 128 µg/mL
same,MIC50,Bacteroides ovatus,> 128 µg/mL
same,MIC90,Bacteroides ovatus,> 128 µg/mL
same,MIC,Prevotella denticola,> 128 µg/mL
same,MIC50,Prevotella denticola,> 128 µg/mL
same,MIC90,Prevotella denticola,> 128 µg/mL
same,MIC,Odoribacter splanchnicus,> 128 µg/mL
same,MIC50,Odoribacter splanchnicus,> 128 µg/mL
same,MIC90,Odoribacter splanchnicus,> 128 µg/mL
same,MIC50,[11],1 µg/mL
same,MIC90,[11],4 µg/mL
same,MIC50,Coriobacterium,1 µg/mL
same,MIC90,Coriobacterium,32 µg/mL
same,MIC50,[12],1 µg/mL
same,MIC90,[12],32 µg/mL
same,MIC,Fusobacterium varium,> 128 µg/mL
same,MIC50,Fusobacterium varium,> 128 µg/mL
same,MIC90,Fusobacterium varium,> 128 µg/mL
same,MIC50,Finegoldia magna,1 µg/mL
same,MIC90,Finegoldia magna,4 µg/mL
same,MIC50,Anaerococcus tetradius,1 µg/mL
same,MIC90,Anaerococcus tetradius,4 µg/mL
same,MIC50,[13],1 µg/mL
same,MIC90,[13],32 µg/mL
same,MIC50,Bifidobacterium longum,1 µg/mL
same,MIC90,Bifidobacterium longum,32 µg/mL
same,MIC50,Clostridium scindens,1 µg/mL
same,MIC90,Clostridium scindens,8 µg/mL
same,MIC50,Collinsella aerofaciens,1 µg/mL
same,MIC90,Collinsella aerofaciens,32 µg/mL

# From ChEMBL document CHEMBL1671662, “In vitro activities of telavancin and six comparator agents against anaerobic bacterial isolates” (2009)
